Consider 15 compounds from patent publication US20210070748A1, “INHIBITORS OF BRUTONS TYROSINE KINASE” (Pharmacyclics LLC, priority 2015, published 2021).

pIC50: −log10 of the molar value. Where two headings read alike, the source gives them in different places.

Assay type in all cases: biochemical
The target in one assay is T1, BTK-WT (Homo sapiens, UniProt Q06187).
T1 construct: purified from insect cells as a full-length construct containing an N-terminal 6X-His tag; His6 (N); made in house; host or cells: insect cells (baculovirus Sf21 in Method B)
As to the kind of experiment: Btk in vitro inhibitory activity (one of Method A TR-FRET, Method B electrophoretic mobility shift, Method C radiometric filter binding). The following applies: read-out: IC50 BTK-WT.

A further assay deals with LCK (Homo sapiens, UniProt P06239). As to the kind of experiment: Inhibition of a panel of kinases, in vitro HotSpot kinase assay: LCK. The following applies: read-out: IC50 LCK.
The next assay addresses T2, JAK3 (Homo sapiens, UniProt P52333).
T2 sequence (P52333 1-1124): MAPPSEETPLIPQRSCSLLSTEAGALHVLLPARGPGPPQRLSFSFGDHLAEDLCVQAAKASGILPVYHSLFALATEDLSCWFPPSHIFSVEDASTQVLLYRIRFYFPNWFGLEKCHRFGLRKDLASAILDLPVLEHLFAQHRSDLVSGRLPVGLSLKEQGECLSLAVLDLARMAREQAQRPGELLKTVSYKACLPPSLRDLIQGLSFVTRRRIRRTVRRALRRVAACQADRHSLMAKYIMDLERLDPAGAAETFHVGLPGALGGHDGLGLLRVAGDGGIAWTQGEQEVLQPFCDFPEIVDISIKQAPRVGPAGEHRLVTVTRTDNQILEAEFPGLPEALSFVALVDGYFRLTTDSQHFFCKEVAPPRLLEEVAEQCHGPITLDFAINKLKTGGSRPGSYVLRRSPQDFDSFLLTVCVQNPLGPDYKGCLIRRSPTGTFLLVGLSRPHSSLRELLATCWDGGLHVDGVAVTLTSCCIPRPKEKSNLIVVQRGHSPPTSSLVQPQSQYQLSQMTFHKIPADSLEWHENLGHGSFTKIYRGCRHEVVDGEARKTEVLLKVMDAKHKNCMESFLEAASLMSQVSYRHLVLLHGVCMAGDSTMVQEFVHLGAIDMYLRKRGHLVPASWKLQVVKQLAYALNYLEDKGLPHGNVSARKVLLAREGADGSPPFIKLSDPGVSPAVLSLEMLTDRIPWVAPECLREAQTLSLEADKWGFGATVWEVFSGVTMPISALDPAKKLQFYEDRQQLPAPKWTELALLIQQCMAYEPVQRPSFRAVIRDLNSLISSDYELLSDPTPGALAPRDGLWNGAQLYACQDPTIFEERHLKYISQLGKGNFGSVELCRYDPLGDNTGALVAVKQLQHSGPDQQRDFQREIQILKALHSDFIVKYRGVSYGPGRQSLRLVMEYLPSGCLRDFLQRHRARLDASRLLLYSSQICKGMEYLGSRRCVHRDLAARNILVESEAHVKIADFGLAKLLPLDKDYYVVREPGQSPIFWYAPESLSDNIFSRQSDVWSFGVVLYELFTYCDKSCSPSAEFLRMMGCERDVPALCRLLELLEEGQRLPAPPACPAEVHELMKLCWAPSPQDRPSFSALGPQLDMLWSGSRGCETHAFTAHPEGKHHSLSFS
As to the kind of experiment: Inhibition of a panel of kinases, in vitro HotSpot kinase assay: JAK3. Particulars: read-out: IC50 JAK3.

Another assay has as its target EGFR (Homo sapiens, UniProt P00533). As to the kind of experiment: Inhibition of a panel of kinases, in vitro HotSpot kinase assay: EGFR. The method, then: The degree of inhibition of a panel of kinases is determined using the in vitro HotSpot kinase assay (purified enzymes, ^33P-ATP, an appropriate substrate and 1 μM ATP).
Where [1] appears, read: D-compounds panel data, 1 μM ATP.

Sequence of EGFR (P00533 25-1210): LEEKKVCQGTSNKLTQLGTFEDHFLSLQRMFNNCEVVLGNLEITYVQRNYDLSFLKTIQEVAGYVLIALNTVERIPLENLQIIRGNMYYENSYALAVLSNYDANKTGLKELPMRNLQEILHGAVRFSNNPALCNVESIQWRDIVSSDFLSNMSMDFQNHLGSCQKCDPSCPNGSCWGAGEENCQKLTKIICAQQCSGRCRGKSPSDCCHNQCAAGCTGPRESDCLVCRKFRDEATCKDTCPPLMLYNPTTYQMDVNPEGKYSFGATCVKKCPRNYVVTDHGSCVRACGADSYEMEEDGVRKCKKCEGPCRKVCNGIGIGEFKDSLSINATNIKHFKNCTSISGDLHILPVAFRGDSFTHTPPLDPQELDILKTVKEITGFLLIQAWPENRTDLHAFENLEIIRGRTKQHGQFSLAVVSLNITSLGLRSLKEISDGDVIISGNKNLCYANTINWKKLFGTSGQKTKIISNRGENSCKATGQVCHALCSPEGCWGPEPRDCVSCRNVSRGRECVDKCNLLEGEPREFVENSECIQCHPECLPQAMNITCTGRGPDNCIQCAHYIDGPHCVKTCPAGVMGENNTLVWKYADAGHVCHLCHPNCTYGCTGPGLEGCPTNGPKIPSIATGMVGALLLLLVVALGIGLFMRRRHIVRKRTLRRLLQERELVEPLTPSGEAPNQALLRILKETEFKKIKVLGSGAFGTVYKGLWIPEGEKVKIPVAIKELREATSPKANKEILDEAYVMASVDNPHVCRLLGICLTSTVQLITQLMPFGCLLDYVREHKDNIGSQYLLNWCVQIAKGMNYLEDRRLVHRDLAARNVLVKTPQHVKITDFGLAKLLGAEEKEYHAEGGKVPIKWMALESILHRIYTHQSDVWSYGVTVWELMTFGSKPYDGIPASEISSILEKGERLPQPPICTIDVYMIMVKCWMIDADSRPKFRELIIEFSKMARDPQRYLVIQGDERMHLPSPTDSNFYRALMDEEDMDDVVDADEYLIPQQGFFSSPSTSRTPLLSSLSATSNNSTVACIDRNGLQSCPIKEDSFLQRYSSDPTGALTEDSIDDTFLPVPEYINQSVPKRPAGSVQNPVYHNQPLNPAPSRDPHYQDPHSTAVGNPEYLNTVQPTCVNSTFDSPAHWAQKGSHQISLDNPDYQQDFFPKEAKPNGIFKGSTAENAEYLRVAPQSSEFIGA
T1 sequence (Q06187 whole entry): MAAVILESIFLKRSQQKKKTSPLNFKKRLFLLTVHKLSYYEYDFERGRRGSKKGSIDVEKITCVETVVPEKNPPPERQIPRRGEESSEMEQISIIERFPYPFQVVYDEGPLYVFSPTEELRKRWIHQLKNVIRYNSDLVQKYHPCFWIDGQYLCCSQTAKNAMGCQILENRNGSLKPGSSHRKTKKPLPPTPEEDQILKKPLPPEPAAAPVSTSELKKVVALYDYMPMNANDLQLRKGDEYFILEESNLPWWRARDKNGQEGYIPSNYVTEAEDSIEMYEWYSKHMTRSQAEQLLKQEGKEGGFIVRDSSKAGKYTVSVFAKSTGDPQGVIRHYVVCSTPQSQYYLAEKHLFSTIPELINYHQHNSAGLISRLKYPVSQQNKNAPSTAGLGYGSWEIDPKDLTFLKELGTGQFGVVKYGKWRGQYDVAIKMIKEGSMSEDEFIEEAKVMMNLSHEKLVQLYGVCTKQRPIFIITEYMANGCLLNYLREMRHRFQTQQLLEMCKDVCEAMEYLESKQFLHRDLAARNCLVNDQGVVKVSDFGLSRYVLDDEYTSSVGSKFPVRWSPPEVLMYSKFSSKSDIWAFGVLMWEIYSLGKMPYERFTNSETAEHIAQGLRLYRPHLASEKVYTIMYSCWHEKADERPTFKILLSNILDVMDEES
Sequence of LCK (P06239 whole entry): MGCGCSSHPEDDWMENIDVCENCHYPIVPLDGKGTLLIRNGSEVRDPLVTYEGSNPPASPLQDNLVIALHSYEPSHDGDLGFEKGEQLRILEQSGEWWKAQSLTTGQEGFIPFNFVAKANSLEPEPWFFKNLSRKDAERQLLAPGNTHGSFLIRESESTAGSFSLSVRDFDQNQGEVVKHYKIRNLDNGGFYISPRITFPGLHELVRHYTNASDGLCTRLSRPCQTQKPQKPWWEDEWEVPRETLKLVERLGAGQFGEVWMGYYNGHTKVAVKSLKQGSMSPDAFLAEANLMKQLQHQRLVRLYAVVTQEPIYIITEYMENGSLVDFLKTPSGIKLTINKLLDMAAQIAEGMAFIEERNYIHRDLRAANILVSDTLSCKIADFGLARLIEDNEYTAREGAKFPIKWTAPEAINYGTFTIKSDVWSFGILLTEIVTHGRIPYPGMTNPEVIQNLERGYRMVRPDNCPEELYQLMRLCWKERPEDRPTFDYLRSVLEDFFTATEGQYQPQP

As to `Cc1cc(Nc2nc(N3C[C@@H](NC(=O)N(C)C)CC[C@@H]3C)cnc2C(N)=O)sn1` [Example D-76, 5-[(2S,5S)-5-[(dimethylcarbamoyl)amino]-2-methylpiperidin-1-yl]-3-[(3-methyl-1,2-thiazol-5-yl)amino]pyrazine-2-carboxamide], the pIC50 was 6.00 to 7.00 at BTK-WT (D-compounds panel data), less than 5.00 at LCK (setting [1]), 5.00 to 6.00 at JAK3 (setting [1]) and 5.00 to 6.00 against EGFR (setting [1]).
Regarding `C[C@@H]1[C@H](NC(=O)c2ccc(N(C)C)cn2)CCCN1c1cnc(C(N)=O)c(Nc2cnn(C)c2)n1` [Example D-84, 5-[(2R,3R)-3-[5-(dimethylamino)pyridine-2-amido]-2-methylpiperidin-1-yl]-3-[(1-methyl-1H-pyrazol-4-yl)amino]pyrazine-2-carboxamide], the pIC50 on BTK-WT (D-compounds panel data) was no less than 8.00; on LCK (setting [1]) it was 6.00 to 7.00; on JAK3 (setting [1]), less than 5.00; against EGFR (setting [1]) it was 5.00 to 6.00.
The matching figures for `CN(C)C(=O)N[C@H]1CCCN(c2cnc(C(N)=O)c(Nc3ccc4ncccc4c3)n2)[C@@H]1CO` (racemic) [Example D-64, trans 5-[3-[(dimethylcarbamoyl)amino]-2-(hydroxymethyl)piperidin-1-yl]-3-[(quinolin-6-yl)amino]pyrazine-2-carboxamide]: 5.00 to 6.00, less than 5.00, less than 5.00 and less than 5.00.
On the same counts, the results for `NC(=O)c1ncc(N2CCC[C@@H](NC(=O)c3ccc(C4CC4)cc3F)C2)nc1Nc1cc(-c2ccccc2)ns1` [Example D-3, 5-[(3R)-3-(4-cyclopropyl-2-fluorobenzamido)piperidin-1-yl]-3-[(3-phenyl-1,2-thiazol-5-yl)amino]pyrazine-2-carboxamide] are less than 5.00, less than 5.00, less than 5.00 and less than 5.00.
The matching figures for `CN1CCN(C(=O)c2ccc(Nc3nc(N[C@H]4CC[C@@H](NC(=O)N(C)C)CC4)cnc3C(N)=O)cc2)CC1` [Example D-72, 3-{[4-(4-methylpiperazine-1-carbonyl)phenyl]amino}-5-{[(1s,4s)-4-[(dimethylcarbamoyl)amino]cyclohexyl]amino}pyrazine-2-carboxamide]: 7.00 to 8.00, 7.00 to 8.00, 5.00 to 6.00 and 5.00 to 6.00.
As for `Cn1cc(Nc2nc(N3CCC(NC(=O)c4ccc(C5CC5)cc4)C(O)C3)cnc2C(N)=O)cn1` (single isomer, unassigned) [Example D-29, Trans-5-[4-(4-cyclopropylbenzamido)-3-hydroxypiperidin-1-yl]-3-[(1-methyl-1H-pyrazol-4-yl)amino]pyrazine-2-carboxamide], the pIC50 on BTK-WT (D-compounds panel data) was 6.00 to 7.00; at LCK (setting [1]), less than 5.00; on JAK3 (setting [1]) it was less than 5.00; against EGFR (setting [1]), less than 5.00.
Regarding `C[C@@H]1[C@H](NC(=O)c2ccc(C3CC3)cc2F)CCCN1c1cnc(C(N)=O)c(Nc2nc3c(s2)CN(C)CC3)n1` [Example D-62, 5-[(2R,3R)-3-(4-cyclopropyl-2-fluorobenzamido)-2-methylpiperidin-1-yl]-3-({5-methyl-4H,5H,6H,7H-[1,3]thiazolo[5,4-c]pyridin-2-yl}amino)pyrazine-2-carboxamide], the pIC50 at BTK-WT (D-compounds panel data) is 6.00 to 7.00; on LCK (setting [1]), less than 5.00; at JAK3 (setting [1]), less than 5.00; on EGFR (setting [1]), less than 5.00.
As for `C[C@@H]1[C@H](NC(=O)c2ccc3c(c2)C(C)(C)CO3)CCCN1c1cnc(C(N)=O)c(Nc2cnn(C)c2)n1` [Example D-55, 5-[(2R,3R)-3-(3,3-dimethyl-2,3-dihydro-1-benzofuran-5-amido)-2-methylpiperidin-1-yl]-3-[(1-methyl-1H-pyrazol-4-yl)amino]pyrazine-2-carboxamide], the pIC50 on BTK-WT (D-compounds panel data) is no less than 8.00; at LCK (setting [1]), 7.00 to 8.00; at JAK3 (setting [1]), less than 5.00; against EGFR (setting [1]), 5.00 to 6.00.
On the same counts, the results for `C[C@@H]1[C@H](NC(=O)c2ccc(C3CC3)cc2)CCCN1c1cnc(C(N)=O)c(Nc2ccc(CN3CCOCC3)cc2)n1` [Example D-316, 5-[(2R,3R)-3-(4-cyclopropylbenzamido)-2-methylpiperidin-1-yl]-3-{[4-(morpholin-4-ylmethyl)phenyl]amino}pyrazine-2-carboxamide] are no less than 8.00, 7.00 to 8.00, 5.00 to 6.00 and 6.00 to 7.00.
With `Cn1cc(Nc2nc(N3CCC[C@@H]4[C@H]3CCN4C(=O)c3ccc(C4CC4)cc3)cnc2C(N)=O)cn1` [Example D-44, 5-[(3aR,7aR)-1-(4-cyclopropylbenzoyl)-octahydro-1H-pyrrolo[3,2-b]pyridin-4-yl]-3-[(1-methyl-1H-pyrazol-4-yl)amino]pyrazine-2-carboxamide], the pIC50 was 7.00 to 8.00 on BTK-WT (D-compounds panel data), 6.00 to 7.00 on LCK (setting [1]), 5.00 to 6.00 on JAK3 (setting [1]) and 6.00 to 7.00 at EGFR (setting [1]).
Consider `Cn1cc(Nc2nc(N3CCC(NC(=O)c4ccc(C5CC5)cc4)C(O)C3)cnc2C(N)=O)cn1` (single isomer, unassigned) [Example D-28, Trans-5-[4-(4-cyclopropylbenzamido)-3-hydroxypiperidin-1-yl]-3-[(1-methyl-1H-pyrazol-4-yl)amino]pyrazine-2-carboxamide], for which the pIC50 on BTK-WT (D-compounds panel data) is 5.00 to 6.00; on LCK (setting [1]), less than 5.00; on JAK3 (setting [1]), less than 5.00; against EGFR (setting [1]) it was less than 5.00.
As for `C=CC(=O)N1CC[C@@H](N(C)c2cnc(C(N)=O)c(Nc3ccc(C4(C)CCN(C5CC5)CC4)cc3)n2)C1` [Example E-104, (R)-5-((1-acryloylpyrrolidin-3-yl)(methyl)amino)-3-(4-(1-cyclopropyl-4-methylpiperidin-4-yl)phenylammo)pyrazine-2-carboxamide], the pIC50 was no less than 8.00 on BTK-WT (E compounds, Table 17); 7.00 to 8.00 on LCK (E compounds, Table 17); greater than 8.00 at JAK3 (E compounds, Table 17); no less than 8.00 against EGFR (E compounds, Table 17).
For the compound `Cc1csc(Nc2nc(N3CCC[C@@H](NC(=O)c4ccc(C5CC5)cc4F)[C@H]3C)cnc2C(N)=O)n1` [Example D-63, 5-[(2R,3R)-3-(4-cyclopropyl-2-fluorobenzamido)-2-methylpiperidin-1-yl]-3-[(4-methyl-1,3-thiazol-2-yl)amino]pyrazine-2-carboxamide], the pIC50 on BTK-WT (D-compounds panel data) was 5.00 to 6.00; on LCK (setting [1]), less than 5.00; at JAK3 (setting [1]), less than 5.00; on EGFR (setting [1]), less than 5.00.
In the case of `C[C@@H]1[C@H](NC(=O)N(C)C)CCCN1c1cnc(C(N)=O)c(Nc2cn[nH]c2)n1` [Example D-53, 5-[(2R,3R)-3-[(dimethylcarbamoyl)amino]-2-methylpiperidin-1-yl]-3-[(1H-pyrazol-4-yl)amino]pyrazine-2-carboxamide], the pIC50 at BTK-WT (D-compounds panel data) is 7.00 to 8.00; at LCK (setting [1]) it was 6.00 to 7.00; at JAK3 (setting [1]) it was 5.00 to 6.00; against EGFR (setting [1]), 5.00 to 6.00.
As for `C[C@@H]1[C@H](NC(=O)c2ccc(C(C)(C)C#N)cc2)CCCN1c1cnc(C(N)=O)c(Nc2cnn(C)c2)n1` [Example D-88, 5-[(2R,3R)-3-[4-(1-cyano-1-methylethyl)benzamido]-2-methylpiperidin-1-yl]-3-[(1-methyl-1H-pyrazol-4-yl)amino]pyrazine-2-carboxamide], the pIC50 on BTK-WT (D-compounds panel data) was no less than 8.00; on LCK (setting [1]) it was 6.00 to 7.00; on JAK3 (setting [1]), 5.00 to 6.00; against EGFR (setting [1]), 5.00 to 6.00.
